Numbered stars: 1 amine (or outer) side, 2 acyl side, 3 side chain; on linkers, the order of the positions; unused ones are H or OH. Square brackets hold non-standard residues; d marks the D form. Peptide text beside a SMILES is read from it. * marks the point of attachment. ξ: configuration not given here. X1 = CC(C)[C@@H](C(=O)[*:2])N(CCCCCCCCO[*:3])[*:1]; Desaminotyrosyl = O=C(CCc1ccc(O)cc1)*; Thr(3ξ) = CC(O)[C@H](N)C(=O)O
Columns and labels:
[1] = target: T1, Ribonucleoside-diphosphate reductase large subunit (Herpes simplex virus (type 1 / strain 17), UniProt P08543); experiment: Inhibitory activity against HSV-1 Ribonucleoside diphosphate reductase was determined; set-up: species or system Human alphaherpesvirus 1
T1 sequence (P08543 whole entry): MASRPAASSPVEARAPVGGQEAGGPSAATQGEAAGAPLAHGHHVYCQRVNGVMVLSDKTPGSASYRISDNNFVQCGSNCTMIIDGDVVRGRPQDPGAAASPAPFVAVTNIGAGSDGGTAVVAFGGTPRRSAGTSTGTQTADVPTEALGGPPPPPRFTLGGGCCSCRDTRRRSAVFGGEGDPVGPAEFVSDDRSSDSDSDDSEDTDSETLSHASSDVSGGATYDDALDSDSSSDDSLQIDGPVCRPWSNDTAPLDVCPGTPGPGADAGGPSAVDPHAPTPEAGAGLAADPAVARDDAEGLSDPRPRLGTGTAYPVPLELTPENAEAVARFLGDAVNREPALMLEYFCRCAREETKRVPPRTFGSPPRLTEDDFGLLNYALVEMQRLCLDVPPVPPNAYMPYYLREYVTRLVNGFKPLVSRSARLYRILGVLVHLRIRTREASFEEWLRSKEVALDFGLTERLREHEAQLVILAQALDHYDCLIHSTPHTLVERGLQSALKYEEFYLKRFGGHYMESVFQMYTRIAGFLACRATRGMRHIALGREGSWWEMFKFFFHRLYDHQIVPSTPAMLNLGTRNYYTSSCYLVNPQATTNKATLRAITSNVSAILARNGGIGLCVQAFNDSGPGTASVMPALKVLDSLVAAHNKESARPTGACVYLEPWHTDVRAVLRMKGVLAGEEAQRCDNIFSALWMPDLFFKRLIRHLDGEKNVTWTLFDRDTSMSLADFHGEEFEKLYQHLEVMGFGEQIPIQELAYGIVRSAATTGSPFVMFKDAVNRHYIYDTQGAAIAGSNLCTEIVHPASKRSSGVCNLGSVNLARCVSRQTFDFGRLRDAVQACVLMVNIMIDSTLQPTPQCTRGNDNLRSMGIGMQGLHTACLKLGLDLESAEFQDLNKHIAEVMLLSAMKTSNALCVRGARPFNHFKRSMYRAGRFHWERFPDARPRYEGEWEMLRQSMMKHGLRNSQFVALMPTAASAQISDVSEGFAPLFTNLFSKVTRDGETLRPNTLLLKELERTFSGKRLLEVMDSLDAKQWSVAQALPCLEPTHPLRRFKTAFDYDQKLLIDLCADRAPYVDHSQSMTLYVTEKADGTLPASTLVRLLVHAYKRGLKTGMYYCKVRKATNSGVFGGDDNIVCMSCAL

[2] = target: T1, Ribonucleoside-diphosphate reductase large subunit; experiment: Inhibitory activity was determined against HSV-1 Ribonucleoside diphosphate reductase; set-up: species or system Human alphaherpesvirus 1
[3] = Relative inhibition compared to HSV-R2-(329-337) was determined; Inactive at 2 mM
[4] = Relative inhibition compared to HSV-R2-(329-337) was determined; Inactive at 1 mM

In the case of `COc1ccc(C[C@H](NC(C)=O)C(=O)N[C@@H](C)C(=O)NCC(=O)N[C@@H](C)C(=O)N[C@H](C(=O)N[C@H](C(=O)N[C@@H](CC(N)=O)C(=O)N[C@@H](CC(=O)O)C(=O)N[C@@H](CC(C)C)C(=O)O)C(C)C)C(C)C)cc1`, the IC50 [1] is reported as 60 µM.

With `COc1ccc(C[C@H](N)C(=O)N[C@@H](C)C(=O)NCC(=O)N[C@@H](C)C(=O)N[C@H](C(=O)N[C@H](C(=O)N[C@@H](CC(N)=O)C(=O)N[C@@H](CC(=O)O)C(=O)N[C@@H](CC(C)C)C(=O)O)C(C)C)C(C)C)cc1` the IC50 [1] was 60 µM.

With `CC(C)C[C@H](NC(=O)[C@H](CC(=O)O)NC(=O)[C@H](CC(N)=O)NC(=O)[C@@H](NC(=O)[C@@H](NC(=O)[C@H](C)NC(=O)CNC(=O)[C@H](C)NC(=O)[C@@H](N)Cc1ccc(O)cc1)C(C)C)C(C)C)C(N)=O` the IC50 [1] was 60 µM.

`CSCC[C@H](NC(=O)[C@@H](NC(=O)[C@@H](N)Cc1ccc(O)cc1)[C@@H](C)O)C(=O)N[C@@H](CC(C)C)C(=O)N[C@H](C(=O)N[C@H](C(=O)N[C@@H](CC(=O)O)C(=O)N[C@@H](CC(=O)O)C(=O)N[C@@H](CC(C)C)C(=O)O)C(C)C)C(C)C` gave an IC50 [2] of 110 µM and an IC50 [1] of 36 µM.

In the case of `CC(C)C[C@H](NC(=O)[C@H](CC(=O)O)NC(=O)[C@H](CC(N)=O)NC(=O)[C@@H](NC(=O)[C@@H](NC(=O)[C@H](C)NC(=O)CNC(=O)[C@H](C)NC(=O)[C@H](Cc1ccc(O)cc1)NC(=O)[C@H](CO)NC(=O)[C@@H](NC(=O)[C@H](CO)NC(=O)[C@H](CCCN=C(N)N)NC(=O)[C@H](CS)NC(=O)[C@H](CCC(=O)O)NC(=O)[C@H](Cc1ccccc1)NC(=O)[C@H](Cc1ccccc1)NC(=O)[C@H](CC(=O)O)NC(=O)[C@@H](N)[C@@H](C)O)[C@@H](C)O)C(C)C)C(C)C)C(=O)O`, the IC50 [2] is reported as 15 µM and the IC50 [1] is reported as 55 µM.

Work on `CC(=O)N[C@H](C(=O)N[C@H](C(=O)N[C@@H](CC(N)=O)C(=O)N[C@@H](CC(=O)O)C(=O)N[C@@H](CC(C)C)C(=O)O)C(C)C)C(C)C` yielded an IC50 [2] of 400 µM and an IC50 [1] of 60 µM.

With `CC(=O)N[C@H](Cc1ccc(O)cc1)C(=O)N[C@@H](C)C(=O)NCC(=O)N[C@@H](C)C(=O)N[C@H](C(=O)N[C@H](C(=O)N[C@@H](CC(N)=O)C(=O)N[C@@H](CC(=O)O)C(=O)N[C@@H](CC(C)C)C(=O)O)C(C)C)C(C)C` the IC50 [1] was 60 µM.

Compound `CC(C)C[C@H](NC(=O)[C@H](CC(=O)O)NC(=O)[C@H](CC(N)=O)NC(=O)[C@@H](NC(=O)[C@@H](NC(=O)[C@H](C)NC(=O)CNC(=O)[C@H](C)NC(=O)[C@H](Cc1ccc(O)cc1)NC(=O)CCCCCCCN)C(C)C)C(C)C)C(=O)O` has an IC50 [2] of 12 µM and an IC50 [1] of 44 µM.

`CC(=O)N[C@@H](Cc1ccc(O)cc1)C(=O)N[C@H](C)C(=O)NCC(=O)N[C@@H](C)C(=O)N[C@H](C(=O)N[C@H](C(=O)N[C@@H](CC(N)=O)C(=O)N[C@@H](CC(=O)O)C(=O)N[C@@H](CC(C)C)C(=O)O)C(C)C)C(C)C` gave an IC50 [1] of 60 µM.

In the case of `CC(=O)N[C@@H](Cc1ccc(O)cc1)C(=O)N[C@@H](C)C(=O)NCC(=O)N[C@@H](C)C(=O)N[C@H](C(=O)N[C@H](C(=O)N[C@@H](CC(N)=O)C(=O)N[C@@H](CC(=O)O)C(=O)N[C@@H](CC(C)C)C(N)=O)C(C)C)C(C)C`, the IC50 [1] is reported as 60 µM.

Compound `CC(=O)N[C@@H](Cc1ccc(O)cc1)C(=O)N[C@@H](C)C(=O)NCC(=O)N[C@@H](C)C(=O)N[C@H](C(=O)N[C@H](C(=O)N[C@@H](CC(N)=O)C(=O)N[C@@H](CC(=O)O)C(=O)N[C@@H](CC(C)C)C(=O)O)C(C)C)C(C)C` has an IC50 [1] of 60 µM.

For `CC(C)C[C@H](NC(=O)[C@H](CC(=O)O)NC(=O)[C@H](CC(N)=O)NC(=O)[C@@H](NC(=O)[C@@H](NC(=O)[C@H](C)NC(=O)CNC(=O)[C@H](C)NC(=O)CCc1ccc(O)cc1)C(C)C)C(C)C)C(=O)O` (Desaminotyrosyl-AGAVVNDL-OH), the IC50 [2] was 33 µM and the IC50 [1] was 60 µM.

Work on `CC[C@H](C)[C@H](NC(=O)[C@@H](NC(=O)CNC(=O)[C@H](C)NC(=O)CCc1ccc(O)cc1)C(C)O)C(=O)N[C@@H](CC(N)=O)C(=O)N[C@@H](CC(=O)O)C(=O)N[C@@H](CC(C)C)C(=O)O` (some centres not stated) (Desaminotyrosyl-AG[Thr(3ξ)]INDL-OH) yielded an IC50 [2] of 13 µM and an IC50 [1] of 13 µM.

Compound `CC(C)C[C@H](NC(=O)[C@H](CC(=O)O)NC(=O)[C@@H](N)CC(N)=O)C(=O)O` (H-Asn-Asp-Leu-OH) has a Relative inhibition [3] of 0%.

`CC(C)C[C@H](NC(=O)[C@H](CC(=O)O)NC(=O)[C@H](CC(N)=O)NC(=O)[C@@H](N)C(C)C)C(=O)O` (H-VNDL-OH) showed a Relative inhibition [3] of 0%.

In the case of `CC(C)C[C@H](NC(=O)[C@H](CC(=O)O)NC(=O)[C@H](CC(N)=O)NC(=O)[C@@H](NC(=O)[C@@H](NCCCCCCCCOC(=O)[C@@H](N)Cc1ccc(O)cc1)C(C)C)C(C)C)C(=O)O` (H-[X1](Tyr)VNDL-OH), the IC50 [2] is reported as 63 µM and the IC50 [1] is reported as 63 µM.

Ac-YAGVVNDL-OH gave an IC50 [1] of 60 µM.

In the case of Ac-YGAVVNDL-OH, the IC50 [1] is reported as 60 µM.

H-AAGAVVNDL-OH showed an IC50 [2] of 280 µM and an IC50 [1] of 280 µM.

For H-AGAVVNDL-OH, the IC50 [2] was 283 µM and the IC50 [1] was 36 µM.

H-AVVNDL-OH gave an IC50 [2] of 190 µM and an IC50 [1] of 190 µM.

H-ECRSTSYAGAVVNDL-OH gave an IC50 [2] of 42 µM and an IC50 [1] of 60 µM.

With H-FAGAVVNDL-OH the IC50 [2] was 90 µM and the IC50 [1] was 55 µM.

H-GAVVNDL-OH showed an IC50 [2] of 225 µM and an IC50 [1] of 225 µM.

H-HAGAVVNDL-OH showed an IC50 [2] of 323 µM and an IC50 [1] of 55 µM.

Work on H-KYAGAVVNDL-OH yielded an IC50 [1] of 55 µM.

Compound H-LAGAVVNDL-OH has an IC50 [2] of 211 µM and an IC50 [1] of 211 µM.

Work on H-STSYAGAVVNDL-OH yielded an IC50 [2] of 29 µM and an IC50 [1] of 60 µM.

Work on H-YAGAAVNDL-OH yielded a Relative inhibition [3] of 0%.

H-YAGAVANDL-OH showed an IC50 [2] of 760 µM and an IC50 [1] of 60 µM.

For H-YAGAVINDL-OH, the IC50 [2] was 33 µM and the IC50 [1] was 49 µM.

With H-YAGAVV-OH the Relative inhibition [3] was 0%.

H-YAGAVVADL-OH showed a Relative inhibition [4] of 0%.

Work on H-YAGAVVN-OH yielded a Relative inhibition [3] of 0%.

Work on H-YAGAVVNAL-OH yielded a Relative inhibition [4] of 0%.

Compound H-YAGAVVND-OH has a Relative inhibition [3] of 0%.

With H-YAGAVVNDA-OH the Relative inhibition [4] was 0%.

Work on H-YAGAVVNDF-OH yielded a Relative inhibition [4] of 0%.

For H-YAGAVVNDI-OH, the IC50 [2] was 153 µM and the IC50 [1] was 55 µM.

With H-YAGAVVNDLK-OH the IC50 [2] was 458 µM and the IC50 [1] was 55 µM.

For H-YAGAVVNDV-OH, the IC50 [2] was 846 µM and the IC50 [1] was 55 µM.

With H-YAGAVVNDY-OH the Relative inhibition [4] was 0%.

Compound H-YAGPVVNDL-OH has an IC50 [1] of 44 µM.

In the case of H-YAGTVINDL-OH, the IC50 [1] is reported as 60 µM.

Work on H-YAGTVVNDL-OH yielded an IC50 [2] of 29 µM and an IC50 [1] of 44 µM.

With H-YAPAVVNDL-OH the IC50 [2] was 37 µM and the IC50 [1] was 44 µM.

With H-YAVVNDL-OH the IC50 [1] was 60 µM.

For H-YGAVVNDL-OH, the IC50 [2] was 330 µM and the IC50 [1] was 60 µM.
